# Laboratory results: US20100137346A1, “DESFE[…] ACTINIDE DEC[…]” (priority 2006, published 2010)
# Where two headings read alike, the source gives them in different places.
# Legend:
# [1] = cited from earlier work
# [2] = rats, same dose; cited from earlier work
# [3] = Chelator accumulation in lung tissue; type: in vivo, rodents; details: SC 300 μmol/kg, 0.5 h post drug
# From the text: Chelator Access to Lung Tissue. As inhalation is one of the principal routes of potential actinide contamination, in a preliminary study aimed at this proposal, the accumulation of two different DFT analogues in lung tissue, (S)-4′-(HO)-DADMDFT (9, FIG. 1) and (S)-3′,4′-(CH3O)-DADMDFT, 19, Table 2)] was investigated. Rodents were given the drugs SC at a dose of 300 μmol/kg. The latter chelator is far more lipophilic than the former. The more lipophilic chelator (19) achieved a concentration of 290±66 nmol/g wet weight 0.5 h post drug. The level of the less lipophilic ligand (9) was much lower, 80±9 nmol/g wet weight 0.5 h post drug. This is consistent with the idea that organ targeting can be achieved,[Bergeron, et al., Impact of the Lipophilicity of Desferrithiocin Analogues on Iron Clearance, Medicinal Inorganic Chemistry 2005; 366-383] corroborating previous studies and further contributing to the index of success of the invention.
# [4] = Iron-clearing efficiency (ICE) in iron-overloaded Cebus apella primate; type: in vivo; details: orally to C. apella primates, 150 μmol/kg
# Description: In the text below, “iron-clearing efficiency” (ICE) [Bergeron, et al., Effects of C-4 Stereochemistry and C-4′ Hydroxylation on the Iron Clearing Efficiency and Toxicity of Desferrithiocin Analogues, J Med Chem 1999; 42:2432-2440] is used as a measure of the amount of iron excretion induced by a chelator. The ICE, expressed as a percent, is calculated as (ligand-induced iron excretion/theoretical iron excretion)×100. To illustrate, the theoretical iron excretion after administration of one millimole of desferrioxamine (DFO, 14, Table 1), a hexadentate chelator which forms a 1:1 complex with Fe(III), is one milli-g-atom of iron. Two millimoles of desferrithiocin (DFT, 1, FIG. 1), a tridentate chelator which forms a 2:1 complex with Fe(III), are required for the theoretical excretion of one milli-g-atom of iron. In clinical practice, the actual ICE of DFO (14), used to treat people with iron overload, is only 5 to 7% [Pippard, et al., Iron Chelation Using Subcutaneous Infusions of Diethylene Triamine Penta-acetic Acid (DTPA), Scand J Haematol 1986; 36:466-472; Pippard, Desferrioxamine-Induced Iron Excretion in Humans, Bailliere's Clin Haematol 1989; 2:323-343]. […]
# [5] = bile duct-cannulated rodent model; cited from earlier work
# [6] = in vivo; cited from earlier work
# [7] = Chelator-induced uranium excretion (urine + bile, 24 h) in bile duct-cannulated rat model; type: in vivo; details: 300 μmol/kg IP Immediate
# Description: Desferrithiocin Analogue Induced Excretion of Uranium. In order to compare results with previous chelator-induced iron excretion data, the uranium clearance studies were carried out in a bile duct-cannulated rat model. The animals were given uranyl acetate dihydrate SC at a dose of 5 mg/kg (the actual dose of uranium is 2.8 mg/kg). Bile and urine samples were collected for 24 hours after dosing. Kidneys were removed from selected animals and tissue uranium concentration measured. At least three animals were utilized in each experimental group. Data from two separate control studies (uranyl acetate/ no chelator) have now been combined for a total of 14 control animals. All uranium concentrations were measured using ICPMS. The data are reported as the total quantity of uranium excreted [urine +bile]; the mode of excretion [urine/bile] is also given. In addition the percentage of the administered dose of uranium cleared and chelator-induced uranium excretion vs the controls is also given. Four positive controls were evaluated: DTPA (13, Table 1) given as its trisodium calcium salt, DFO (14), N,N′-bis(2hydroxybenzyl)ethylenediamine-N,N′-diacetic acid, monosodium salt (NaHBED, 15) and the hydroxypyridone CP94 (16) shown to bind uranium [Pashalidis, et al., Effective complex formation in the interaction of 1,2-dimethyl-3-hydroxypyrid-4-one (Deferiprone or L1) with uranium(VI), Journal of Radioanalytical and Nuclear Chemistry 1999; 242:181-184.] The total metal cleared after 24 h in control rats was 10% of the administered dose. When DTPA, 13, was given IP or PO at 300 μmol/kg immediately after uranium, the excretion was 17% and 8% of the administered dose respectively (p>0.05). However, when the drug was given IP at a dose of 600 μmol/kg immediately post-metal, the uranium excretion was significant, 20% (p<0.005). This is consistent with previously published data using a similar animal model.[Domingo, et al., Comparative effects of the chelators sodium 4,5-dihydroxybenzene-1,3-disulfonate (Tiron) and diethylenetriaminepentaacetic acid (DTPA) on acute uranium nephrotoxicity in rats, Toxicology 1997; 118:49-59] DFO (14) and CP94 (16) given IP immediately post uranyl acetate were ineffective.
# Desferrithiocin Analogue-Induced Excretion of Uranium. In order to compare results with previous chelator-induced iron excretion data, the uranium clearance studies were carried out in a bile duct-cannulated rat model. The animals were given uranyl acetate dihydrate SC at a dose of 5 mg/kg (the actual dose of uranium is 2.8 mg/kg). Bile and urine samples were collected for 24 hours after dosing. Kidneys were removed from selected animals and tissue uranium concentration measured. At least three animals were utilized in each experimental group. Data from two separate control studies (uranyl acetate/ no chelator) are combined for a total of 14 control animals. All uranium concentrations were measured using ICPMS. The data are reported as the total quantity of uranium excreted [urine +bile]; the mode of excretion [urine/bile] is also given. In addition the percentage of the administered dose of uranium cleared and chelator-induced uranium excretion vs the controls is also given. Four positive controls were evaluated: DTPA (1, Table 1) given as its trisodium calcium salt, DFO (2), N,N -bis(2-hydroxybenzyl)ethylenediamine-N,N-diacetic acid, monosodium salt (NaHBED, 3) and the hydroxypyridone CP94 (4) shown to bind uranium. The total metal cleared after 24 h in control rats was 10% of the administered dose. When DTPA, 1, was given IP or PO at 300 μmol/kg immediately after uranium, the excretion was 17% and 8% of the administered dose respectively (p>0.05). However, when the drug was given IP at a dose of 600 μmol/kg immediately post metal, the uranium excretion was significant, 20% (p<0.005). This is consistent with previously published data using a similar animal model.^2 DFO (2) and CP94 (4) given IP immediately post uranyl acetate were ineffective.
# [8] = rodents; cited from earlier work
# [9] = rodents; cited from earlier work; remark: listed apart in the source
smiles,measurement,setting,value
"O=C(O)[C@H]1CSC(c2ccc(O)cc2O)=N1 [Compound 9, (S)-2(2,4-dihydroxyphenyl)-4,5-dihydro-4-thiazolecarboxylic acid]","iron-clearing activity, in words",[1]; C. apella model,compatible with iron clearance
same,ICE,[1]; administered PO at a dose of 150 μmol/kg,5.3%
same,outcome of planned 10-day dosing regimen,[2],did not display any frank toxicity
same,concentration in lung tissue,[3],80±9 nmol/g wet weight
COc1ccc(C2=N[C@@H](C(=O)O)CS2)c(O)c1OC [drawing 26],Iron Clearing Efficiency (%),[4],12.4 ± 6.2%
same,relative percentages of the iron excreted in the stool and urine,[4]; [stool/urine],94/6
"COc1ccc(C2=N[C@@H](C(=O)O)CS2)c(O)c1OC [Compound 19, (S)-4,5-dihydro-2(3,4-dimethoxy-2-hydroxyphenyl)-4-thiazolecarboxylic acid]",concentration in lung tissue,[3],290±66 nmol/g wet weight
"C[C@]1(C(=O)O)CSC(c2ncccc2O)=N1 [Compound 1, (S)-4,5-dihydro-2-(3-hydroxy-2-pyridinyl)-4methyl-4-thiazolecarboxylic acid, reference compound]",ICE,[5],5.5%
same,ICE,[1]; iron-overloaded C. apella primate,16%
same,"toxicity, in words",[6],severely nephrotoxic
"COCCOCCOCCOc1ccc(C2=N[C@@](C)(C(=O)O)CS2)c(O)c1 [Compound 18, (S)-4,5-dihydro-2-[2-hydroxy-4-(3,6,9-trioxadecyloxy)phenyl]-4methyl-4-thiazolecarboxylic acid]",% of Administered Dose Cleared,[7],22%
same,tolerability versus 10,[8],more tolerable
same,kidney concentration versus 10,[9],significantly lower concentrations in the kidney
same,liver concentration versus 10,[9],higher concentrations in the liver
same,"iron-clearing efficiency, in words",[1]; in both rodents and primates,highly efficient iron chelator
